This note sets out measurements from patent US10745400B2, “Inhibition of BMP signaling, compounds, compositions and uses thereof” (Vanderbilt University, priority 2018, dated 2020).

One data set has as its target T1, ALK5 (Homo sapiens, UniProt P36897).
T1 sequence (P36897 34-503): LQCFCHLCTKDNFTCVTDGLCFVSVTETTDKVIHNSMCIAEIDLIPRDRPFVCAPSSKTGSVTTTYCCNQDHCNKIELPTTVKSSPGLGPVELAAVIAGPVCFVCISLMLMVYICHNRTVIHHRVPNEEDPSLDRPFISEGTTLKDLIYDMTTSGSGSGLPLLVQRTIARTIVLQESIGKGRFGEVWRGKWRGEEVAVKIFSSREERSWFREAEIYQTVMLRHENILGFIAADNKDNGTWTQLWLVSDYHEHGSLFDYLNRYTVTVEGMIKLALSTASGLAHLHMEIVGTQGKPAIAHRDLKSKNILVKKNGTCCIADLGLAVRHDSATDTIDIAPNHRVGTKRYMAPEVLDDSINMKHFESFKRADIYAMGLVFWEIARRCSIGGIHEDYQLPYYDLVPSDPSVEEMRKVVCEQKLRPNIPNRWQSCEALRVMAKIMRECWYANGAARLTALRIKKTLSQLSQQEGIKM
The data set can be described thus: Kinase assay (33P-ATP filter-binding), ALK5. The format is biochemical. To be noted: read-out: Kinase Selectivity ALK5. How it is done:
(§1) The kinase assays were carried out briefly as follows. Substrate was prepared in Base Reaction Buffer (20 mM Hepes (pH 7.5), 10 mM MgCl2, 1 mM EGTA, 0.02% Brij35, 0.02 mg/ml BSA, 0.1 mM Na3VO4, 2 mM DTT, 1% DMSO). The indicated kinases was delivered into the substrate solution and allowed to gently mix. Next, the specific compound was delivered in DMSO into the kinase mixture by Acoustic technology (Echo550; nanoliter range), and allowed to incubate for 20 minutes at room temperature. Next, ^33P-ATP was delivered into the reaction mixture to initiate the reaction and allowed to incubate at room temperature. After 2 hours, the reactions were spotted onto P81 ion exchange paper and the kinase activity is detected by the filter-binding method.

Data set [1] concerns BMP-responsive C2C12 mouse myoblast cells stimulated with BMP4. Kind of data set: BMP4 cell assay (Id1 promoter-firefly luciferase reporter). To be noted: BMP4 50 ng/mL, overnight. The data set is classed as cell-based. How it is done:
The BMP4 cell assay were carried out briefly as follows. Stably transfected BMP-responsive C2C12 mouse myoblast cells (containing the Idl promoter-firefly luciferase reporter) were seeded in 96-well plates and incubated overnight with the compounds and BMP4 (50 ng/mL). The cells were then lysed, and cell extracts were then subjected to the firefly luciferase assay using Steady-Glo luciferase assay kit (Promega). The results were normalized to cell titers, as measured using Cell Titer-Glo luminescence assay (Promega). […] Relative activity was quantified by the ratio of firefly to Renilla luciferase activities using the dual luciferase assay kit (Promega).
On the technique in general: In a reporter assay the amount or activity of a reporter protein is the signal.

A further data set concerns the target ALK6 (Homo sapiens, UniProt O00238). Kind of data set: Kinase assay (33P-ATP filter-binding), ALK6. The format is biochemical. To be noted: read-out: Kinase Selectivity ALK6. The procedure: as §1
Another data set can be described thus: Protein binding, human. The format is in vitro ADME.
The nature of data set [2]: Intrinsic clearance, human. To be noted: for CLint scaled: human. The data set is classed as in vitro ADME.
The next data set deals with KDR (Homo sapiens, UniProt P35968). Kind of data set: Kinase assay (33P-ATP filter-binding), KDR. The format is biochemical. To be noted: read-out: Kinase Selectivity KDR. The procedure: as §1
In a further data set the target is T2, BMPR2 (Homo sapiens, UniProt Q13873).
T2 sequence (Q13873 27-1038): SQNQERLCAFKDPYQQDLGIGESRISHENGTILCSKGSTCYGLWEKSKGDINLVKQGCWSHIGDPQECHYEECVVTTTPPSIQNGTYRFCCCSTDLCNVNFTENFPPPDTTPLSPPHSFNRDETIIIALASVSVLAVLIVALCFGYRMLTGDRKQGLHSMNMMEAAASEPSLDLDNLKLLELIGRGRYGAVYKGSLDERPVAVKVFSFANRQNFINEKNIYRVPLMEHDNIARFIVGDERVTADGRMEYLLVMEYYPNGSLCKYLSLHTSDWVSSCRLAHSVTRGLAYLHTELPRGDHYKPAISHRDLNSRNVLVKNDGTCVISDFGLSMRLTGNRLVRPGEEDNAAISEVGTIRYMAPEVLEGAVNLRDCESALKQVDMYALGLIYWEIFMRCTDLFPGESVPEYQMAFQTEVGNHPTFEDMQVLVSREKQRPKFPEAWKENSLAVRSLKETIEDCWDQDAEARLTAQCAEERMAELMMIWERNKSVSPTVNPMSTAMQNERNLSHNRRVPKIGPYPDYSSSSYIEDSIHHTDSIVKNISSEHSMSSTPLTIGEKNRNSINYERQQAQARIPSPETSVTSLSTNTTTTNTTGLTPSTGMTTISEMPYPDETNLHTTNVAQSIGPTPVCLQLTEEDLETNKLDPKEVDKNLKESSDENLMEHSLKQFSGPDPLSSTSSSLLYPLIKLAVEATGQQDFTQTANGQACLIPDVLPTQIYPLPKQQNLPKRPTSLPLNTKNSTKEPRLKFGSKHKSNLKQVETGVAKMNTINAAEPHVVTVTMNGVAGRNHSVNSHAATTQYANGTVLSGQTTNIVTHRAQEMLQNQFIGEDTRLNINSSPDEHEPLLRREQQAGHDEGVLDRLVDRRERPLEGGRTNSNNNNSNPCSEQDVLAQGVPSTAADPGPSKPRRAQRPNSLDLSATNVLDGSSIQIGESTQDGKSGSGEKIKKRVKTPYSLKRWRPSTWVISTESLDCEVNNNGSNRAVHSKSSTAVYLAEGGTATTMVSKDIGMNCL
The data set can be described thus: Kinase assay (33P-ATP filter-binding), BMPR2. The format is biochemical. The note with it: read-out: Kinase Selectivity BMPR2. How it is done:
as §1

The target in another data set is ALK3/BMPR1A (Homo sapiens, UniProt P36894). Kind of data set: Kinase assay (33P-ATP filter-binding), ALK3. The format is biochemical. The note with it: 1 mM; read-out: Kinase Selectivity ALK3/BMPR1A (1 mM). The procedure:
as §1

For a further data set, the target named is ALK1/ACVRL1 (Homo sapiens, UniProt P37023). Kind of data set: Kinase assay (33P-ATP filter-binding), ALK1. The data set is classed as biochemical. To be noted: read-out: Kinase Selectivity ALK1/ACVRL1. How it is done: as §1
The target of a further data set is T3, ALK4 (Homo sapiens, UniProt P36896).
T3 sequence (P36896 24-505): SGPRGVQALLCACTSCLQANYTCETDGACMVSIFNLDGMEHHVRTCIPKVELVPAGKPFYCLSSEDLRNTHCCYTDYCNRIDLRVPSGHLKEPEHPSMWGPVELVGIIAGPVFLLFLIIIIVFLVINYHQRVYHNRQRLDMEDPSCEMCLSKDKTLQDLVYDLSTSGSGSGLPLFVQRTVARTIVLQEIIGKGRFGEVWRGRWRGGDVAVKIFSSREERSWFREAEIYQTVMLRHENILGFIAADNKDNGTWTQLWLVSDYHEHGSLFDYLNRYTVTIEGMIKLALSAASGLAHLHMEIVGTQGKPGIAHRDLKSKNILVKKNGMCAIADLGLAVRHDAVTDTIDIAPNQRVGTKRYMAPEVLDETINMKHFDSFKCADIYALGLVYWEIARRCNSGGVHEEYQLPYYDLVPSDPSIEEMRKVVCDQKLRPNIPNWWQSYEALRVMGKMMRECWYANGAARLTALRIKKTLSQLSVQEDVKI
Kind of data set: Kinase assay (33P-ATP filter-binding), ALK4. The data set is classed as biochemical. To be noted: read-out: Kinase Selectivity ALK4. The procedure:
as §1

Data set [3] in a line: Intrinsic clearance, mouse. The format is in vitro ADME. The note with it: for CLint scaled: mouse.
The target in the next data set is PDGFRb (Homo sapiens, UniProt P09619). Kind of data set: Kinase assay (33P-ATP filter-binding), PDGFRb. The data set is classed as biochemical. To be noted: read-out: Kinase Selectivity PDGFRb. How it is done: as §1
Another data set concerns the target TGFbR2 (Homo sapiens, UniProt P37173). The data set can be described thus: Kinase assay (33P-ATP filter-binding), TGFbR2. The format is biochemical. The note with it: read-out: Kinase Selectivity TGFbR2. How it is done:
as §1

A short description of the next data set: Protein binding, mouse. The format is in vitro ADME.
The mark [4] stands for this setting: CL-Hep, value in parentheses, read-out: Intrinsic Clearance Human (CL-Hep).

Each structure is given as a SMILES string.

ALK1/ACVRL1, sequence (P37023 22-503): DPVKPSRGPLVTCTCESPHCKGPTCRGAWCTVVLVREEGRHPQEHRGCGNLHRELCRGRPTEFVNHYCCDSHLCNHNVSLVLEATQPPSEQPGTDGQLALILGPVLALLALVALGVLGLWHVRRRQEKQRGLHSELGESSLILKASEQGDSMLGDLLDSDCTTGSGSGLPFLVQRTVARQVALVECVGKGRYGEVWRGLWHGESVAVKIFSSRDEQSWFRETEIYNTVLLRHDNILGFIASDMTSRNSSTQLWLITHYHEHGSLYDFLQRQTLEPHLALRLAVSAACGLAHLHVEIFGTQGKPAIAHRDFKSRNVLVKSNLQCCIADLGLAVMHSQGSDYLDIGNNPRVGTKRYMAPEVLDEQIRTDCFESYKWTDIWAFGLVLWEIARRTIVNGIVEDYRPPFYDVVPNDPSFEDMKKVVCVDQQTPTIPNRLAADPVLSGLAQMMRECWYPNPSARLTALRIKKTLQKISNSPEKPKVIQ
PDGFRb, sequence (P09619 33-1106, species assumed): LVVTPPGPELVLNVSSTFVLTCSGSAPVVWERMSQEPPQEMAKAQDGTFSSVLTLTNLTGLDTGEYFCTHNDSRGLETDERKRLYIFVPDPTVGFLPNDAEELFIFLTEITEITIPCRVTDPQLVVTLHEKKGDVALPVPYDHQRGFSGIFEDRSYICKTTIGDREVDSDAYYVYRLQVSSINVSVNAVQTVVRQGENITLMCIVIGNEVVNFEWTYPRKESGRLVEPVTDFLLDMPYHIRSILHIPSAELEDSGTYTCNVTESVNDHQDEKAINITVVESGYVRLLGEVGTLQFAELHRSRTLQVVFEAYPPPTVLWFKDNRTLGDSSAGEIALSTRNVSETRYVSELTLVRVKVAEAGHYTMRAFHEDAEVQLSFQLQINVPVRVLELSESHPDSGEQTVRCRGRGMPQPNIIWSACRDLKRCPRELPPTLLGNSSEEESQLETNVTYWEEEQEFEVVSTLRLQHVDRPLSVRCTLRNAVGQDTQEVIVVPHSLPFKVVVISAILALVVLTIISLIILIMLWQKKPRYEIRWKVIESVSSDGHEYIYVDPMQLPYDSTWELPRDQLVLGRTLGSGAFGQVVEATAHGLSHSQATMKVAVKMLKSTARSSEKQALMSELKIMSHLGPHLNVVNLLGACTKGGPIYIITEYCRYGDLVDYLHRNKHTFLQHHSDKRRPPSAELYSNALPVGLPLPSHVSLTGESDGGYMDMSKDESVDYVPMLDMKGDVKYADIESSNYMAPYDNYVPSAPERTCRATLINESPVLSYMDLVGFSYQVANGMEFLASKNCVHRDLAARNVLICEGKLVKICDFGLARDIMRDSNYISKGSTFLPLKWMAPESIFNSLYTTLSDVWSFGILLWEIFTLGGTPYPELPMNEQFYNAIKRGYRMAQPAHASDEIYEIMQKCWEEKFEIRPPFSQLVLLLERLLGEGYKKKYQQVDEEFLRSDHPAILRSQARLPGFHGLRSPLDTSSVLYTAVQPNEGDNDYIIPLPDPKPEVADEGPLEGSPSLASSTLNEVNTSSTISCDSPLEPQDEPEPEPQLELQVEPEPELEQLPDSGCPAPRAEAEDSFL
TGFbR2, sequence (P37173 23-567, species assumed): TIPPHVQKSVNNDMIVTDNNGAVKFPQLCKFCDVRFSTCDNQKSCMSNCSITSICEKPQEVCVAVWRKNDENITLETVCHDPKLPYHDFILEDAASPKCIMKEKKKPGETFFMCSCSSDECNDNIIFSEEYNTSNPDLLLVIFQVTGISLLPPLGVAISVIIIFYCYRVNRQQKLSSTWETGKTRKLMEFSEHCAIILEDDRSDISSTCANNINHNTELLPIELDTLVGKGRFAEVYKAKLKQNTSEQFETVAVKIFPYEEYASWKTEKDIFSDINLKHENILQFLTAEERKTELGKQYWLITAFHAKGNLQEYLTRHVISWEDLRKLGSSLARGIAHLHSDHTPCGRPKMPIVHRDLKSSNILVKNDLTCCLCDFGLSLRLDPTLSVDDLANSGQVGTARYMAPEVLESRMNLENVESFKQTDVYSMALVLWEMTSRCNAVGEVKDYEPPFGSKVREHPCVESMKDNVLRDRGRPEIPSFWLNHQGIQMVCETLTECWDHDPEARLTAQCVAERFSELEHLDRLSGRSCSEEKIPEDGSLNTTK
ALK3/BMPR1A, sequence (P36894 24-532): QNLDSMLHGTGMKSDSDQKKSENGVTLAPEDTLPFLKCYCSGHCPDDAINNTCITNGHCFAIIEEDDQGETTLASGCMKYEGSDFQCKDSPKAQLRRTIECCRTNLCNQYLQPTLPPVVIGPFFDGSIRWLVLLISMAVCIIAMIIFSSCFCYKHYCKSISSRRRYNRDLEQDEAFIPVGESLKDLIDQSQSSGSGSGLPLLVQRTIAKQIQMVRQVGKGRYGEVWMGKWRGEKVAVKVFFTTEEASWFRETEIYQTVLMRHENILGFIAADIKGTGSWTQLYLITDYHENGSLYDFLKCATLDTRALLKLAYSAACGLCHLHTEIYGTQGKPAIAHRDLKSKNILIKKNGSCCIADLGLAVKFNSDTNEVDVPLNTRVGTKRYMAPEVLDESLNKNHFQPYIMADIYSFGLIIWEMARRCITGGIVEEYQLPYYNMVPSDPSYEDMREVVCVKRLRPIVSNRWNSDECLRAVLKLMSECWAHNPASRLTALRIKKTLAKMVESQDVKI
ALK6, sequence (O00238 14-502): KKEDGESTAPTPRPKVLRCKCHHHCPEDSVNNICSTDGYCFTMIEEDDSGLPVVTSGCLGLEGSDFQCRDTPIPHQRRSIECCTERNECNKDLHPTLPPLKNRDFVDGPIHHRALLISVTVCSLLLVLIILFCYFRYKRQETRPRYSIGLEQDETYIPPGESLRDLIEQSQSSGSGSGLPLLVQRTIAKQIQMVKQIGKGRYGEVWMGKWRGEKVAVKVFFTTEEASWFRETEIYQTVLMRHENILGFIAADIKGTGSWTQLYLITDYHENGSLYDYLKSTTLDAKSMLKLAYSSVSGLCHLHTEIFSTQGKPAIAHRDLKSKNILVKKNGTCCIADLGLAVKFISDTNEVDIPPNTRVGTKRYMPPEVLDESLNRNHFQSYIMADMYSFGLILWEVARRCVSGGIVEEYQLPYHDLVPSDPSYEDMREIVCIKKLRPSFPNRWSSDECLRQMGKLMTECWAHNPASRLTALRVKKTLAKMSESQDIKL
KDR, sequence (P35968 20-1356, species assumed): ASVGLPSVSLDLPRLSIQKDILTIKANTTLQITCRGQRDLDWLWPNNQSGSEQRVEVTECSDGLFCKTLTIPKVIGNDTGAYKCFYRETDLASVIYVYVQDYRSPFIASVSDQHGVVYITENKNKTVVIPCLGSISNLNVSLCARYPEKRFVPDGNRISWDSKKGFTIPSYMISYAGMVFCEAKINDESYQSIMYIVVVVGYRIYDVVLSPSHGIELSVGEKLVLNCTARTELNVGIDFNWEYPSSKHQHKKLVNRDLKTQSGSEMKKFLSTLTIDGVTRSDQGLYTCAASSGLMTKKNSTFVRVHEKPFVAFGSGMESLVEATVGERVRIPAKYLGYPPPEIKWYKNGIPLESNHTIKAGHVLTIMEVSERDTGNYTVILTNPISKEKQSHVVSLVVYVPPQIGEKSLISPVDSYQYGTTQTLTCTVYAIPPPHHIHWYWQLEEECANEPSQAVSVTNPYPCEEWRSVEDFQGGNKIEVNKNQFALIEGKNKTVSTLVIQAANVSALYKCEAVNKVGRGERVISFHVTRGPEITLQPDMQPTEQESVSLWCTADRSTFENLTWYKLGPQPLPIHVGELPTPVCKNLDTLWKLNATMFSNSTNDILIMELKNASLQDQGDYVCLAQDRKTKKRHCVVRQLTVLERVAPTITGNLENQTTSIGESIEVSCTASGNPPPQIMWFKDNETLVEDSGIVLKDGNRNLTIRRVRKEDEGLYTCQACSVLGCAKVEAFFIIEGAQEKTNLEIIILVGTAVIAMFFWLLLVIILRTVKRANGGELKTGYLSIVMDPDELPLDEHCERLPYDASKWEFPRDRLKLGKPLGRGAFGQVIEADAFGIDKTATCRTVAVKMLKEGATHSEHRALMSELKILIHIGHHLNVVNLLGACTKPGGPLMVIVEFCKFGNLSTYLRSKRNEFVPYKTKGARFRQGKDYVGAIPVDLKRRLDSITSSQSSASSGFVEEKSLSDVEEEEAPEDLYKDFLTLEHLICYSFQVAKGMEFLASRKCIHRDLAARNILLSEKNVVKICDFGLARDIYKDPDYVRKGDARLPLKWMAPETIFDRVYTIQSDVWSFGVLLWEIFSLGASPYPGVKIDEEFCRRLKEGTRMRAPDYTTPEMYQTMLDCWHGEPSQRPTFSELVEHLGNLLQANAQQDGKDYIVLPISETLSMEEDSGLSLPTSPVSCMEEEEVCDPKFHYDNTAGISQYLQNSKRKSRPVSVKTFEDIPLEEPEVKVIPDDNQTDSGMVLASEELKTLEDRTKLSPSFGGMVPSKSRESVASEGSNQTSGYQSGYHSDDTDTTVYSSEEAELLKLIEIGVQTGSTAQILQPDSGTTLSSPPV

Turning to `Cc1cc(-c2cnc3cc(-c4ccc(C5CNCCN5)cc4)ccn23)c2cc(F)ccc2n1` (centres unmarked) [Compound 17], the IC50 on ALK5 was 0.717 µM; in [1] (Mus musculus, C2C12, C2C12 cells), 0.0296 µM; at ALK6, 0.188 µM; on KDR, 36.9 µM; at BMPR2 it was > 100 µM; at ALK3/BMPR1A, < 0.0051 µM. The IC50 at ALK1/ACVRL1 was 0.0892 µM; at ALK4, 0.39 µM; on PDGFRb, 6.93 µM; at TGFbR2, 0.498 µM. Moreover, the “Protein Binding (% Free) Human” value in “Protein binding, human” was determined as 10.3 % Free. The CLint scaled in data set [2] (setting [4]) is 14 mL/min/kg; in [2] (read-out: Intrinsic Clearance Human) it was 46.7 mL/min/kg; in data set [3] (CL-Hep, value in parentheses, read-out: Intrinsic Clearance Mouse (CL-Hep)), < 32.9 mL/min/kg; in data set [3] (read-out: Intrinsic Clearance Mouse), < 49.5 mL/min/kg. Moreover, in the data set “Protein binding, mouse”, the “Protein Binding (% Free) Mouse” value is 8.52 % Free.

For `Cc1cc(-c2cnc3cc(-c4ccc(C5CNCCN5)cc4)ccn23)c2cc(F)ccc2n1` (centres unmarked) [Compound 18], the IC50 on ALK5 is 0.456 µM; in data set [1] (C2C12 cells) it was 0.0349 µM; at ALK6, 0.231 µM; at KDR, 31.4 µM; on BMPR2, > 100 µM; on ALK3/BMPR1A it was < 0.0051 µM. Further, the IC50 on ALK1/ACVRL1 was 0.0164 µM; at ALK4 it was 0.386 µM; on PDGFRb it was 6.49 µM; on TGFbR2, 2.68 µM. Besides, in “Protein binding, human”, the “Protein Binding (% Free) Human” value is reported as 7.33 % Free. The “Intrinsic Clearance Human (CL-Hep)” value in data set [2] (CL-Hep, value in parentheses) was “(12.4) mL/kg/min”. Moreover, the “Intrinsic Clearance Mouse” value in data set [3] was <49.5 mL/min/kg. Moreover, in [3] (CL-Hep, value in parentheses), the “Intrinsic Clearance Mouse (CL-Hep)” value is recorded as “(<32.94) mL/kg/min”. Further, the “Protein Binding (% Free) Mouse” value in “Protein binding, mouse” amounted to 5.48 % Free.

With `Cc1cc(-c2cnc3cc(-c4ccc(C5COCCN5)cc4)ccn23)c2cc(F)cc(F)c2n1` (centres unmarked) [Compound 22], the IC50 on ALK5 was 0.232 µM; on ALK6, 0.128 µM; at KDR, 39.3 µM; at BMPR2 it was > 50 µM; at ALK3/BMPR1A, < 0.0051 µM; at ALK1/ACVRL1, 0.0721 µM. The IC50 on ALK4 amounted to 0.113 µM; on PDGFRb it was 5.2 µM; at TGFbR2, 0.388 µM. Besides, the CLint scaled in data set [2] (setting [4]) stood at 17.5 mL/min/kg.
